Converted amounts (≈) assume the structure as drawn.
What was measured:
Escherichia coli [1] = assay: Antibacterial activity against Escherichia coli at 30 ug after 8 hrs; format: functional
[2] = test system: Mycobacterium tuberculosis; assay: Antitubercular activity against dormant Mycobacterium tuberculosis H37Ra after 12 days by XTT-Menadione assay; format: functional, organism-based; details: 288 h
A549 = assay: (§1) Cytotoxicity against human A549 cells after 3 days by MTT assay; format: cell-based; details: Homo sapiens, A549, 72 h
[3] = as §1; format: cell-based; details: human, A549 cells; read-out: MIC
Escherichia coli [4] = assay: Antibacterial activity against Escherichia coli at 3 ug after 8 hrs; format: functional
Staphylococcus aureus [5] = assay: Antibacterial activity against Staphylococcus aureus at 10 ug after 12 hrs; format: functional
Bacillus subtilis [6] = assay: Antibacterial activity against Bacillus subtilis at 10 ug after 12 hrs; format: functional
[7] = test system: Mycolicibacterium smegmatis; assay: Antitubercular activity against dormant Mycobacterium smegmatis MC2 155 at 3 ug after 12 days by XTT-Menadione assay; format: functional, str. MC2 155
[8] = test system: Mycobacterium tuberculosis; assay: Antitubercular activity against dormant Mycobacterium tuberculosis H37Ra at 3 ug after 12 days by XTT-Menadione assay; format: functional
Staphylococcus aureus [9] = assay: Antibacterial activity against Staphylococcus aureus at 30 ug after 12 hrs; format: functional
[10] = Cytotoxicity against human PANC1 cells after 5 days by MTT assay; format: cell-based, PANC-1; details: for IC50: Homo sapiens, PANC-1, 120 h; for MCC at 120 h: human, PANC1 cells, read-out: MIC
[11] = test system: Mycolicibacterium smegmatis; assay: Antitubercular activity against dormant Mycobacterium smegmatis MC2 155 at 10 ug after 12 days by XTT-Menadione assay; format: functional, str. MC2 155
Staphylococcus aureus [12] = assay: Antibacterial activity against Staphylococcus aureus at 3 ug after 12 hrs; format: functional
[13] = Cytotoxicity against human THP1 cells after 5 days by MTT assay; format: cell-based, THP-1; details: for IC50: Homo sapiens, THP-1, 120 h; for MCC at 120 h: human, THP1 cells, read-out: MIC
[14] = (§2) Cytotoxicity against human MCF7 cells after 4 days by MTT assay; format: cell-based; details: human, MCF7 cells; read-out: MIC
MCF7 = assay: as §2; format: cell-based; details: Homo sapiens, MCF7, 96 h
[15] = test system: Mycobacterium tuberculosis; assay: Antitubercular activity against dormant Mycobacterium tuberculosis H37Ra at 10 ug after 12 days by XTT-Menadione assay; format: functional
Bacillus subtilis [16] = assay: Antibacterial activity against Bacillus subtilis at 30 ug after 12 hrs; format: functional
Pseudomonas fluorescens [17] = assay: Antibacterial activity against Pseudomonas fluorescens at 30 ug after 8 hrs; format: functional
[18] = test system: Mycobacterium tuberculosis; assay: Antitubercular activity against dormant Mycobacterium tuberculosis H37Ra at 30 ug after 12 days by XTT-Menadione assay; format: functional
Pseudomonas fluorescens [19] = assay: Antibacterial activity against Pseudomonas fluorescens at 10 ug after 8 hrs; format: functional
[20] = test system: Mycolicibacterium smegmatis; assay: Antitubercular activity against dormant Mycobacterium smegmatis MC2 155 at 30 ug after 12 days by XTT-Menadione assay; format: functional, str. MC2 155
Escherichia coli [21] = assay: Antibacterial activity against Escherichia coli at 10 ug after 8 hrs; format: functional
Bacillus subtilis [22] = assay: Antibacterial activity against Bacillus subtilis at 3 ug after 12 hrs; format: functional
Pseudomonas fluorescens [23] = assay: Antibacterial activity against Pseudomonas fluorescens at 3 ug after 8 hrs; format: functional

Structure (SMILES) | inhibition (INH) (Escherichia coli [1]) | IC50 [2] | MIC [2] | inhibition (INH) (Escherichia coli [4]) | inhibition (INH) (Staphylococcus aureus [5]) | inhibition (INH) (Bacillus subtilis [6]) | inhibition (INH) [7] | inhibition (INH) [8] | inhibition (INH) (Staphylococcus aureus [9]) | inhibition (INH) [11] | inhibition (INH) (Staphylococcus aureus [12]) | inhibition (INH) [15] | inhibition (INH) (Bacillus subtilis [16]) | inhibition (INH) (Pseudomonas fluorescens [17]) | inhibition (INH) [18] | inhibition (INH) (Pseudomonas fluorescens [19]) | inhibition (INH) [20] | inhibition (INH) (Escherichia coli [21]) | inhibition (INH) (Bacillus subtilis [22]) | inhibition (INH) (Pseudomonas fluorescens [23]) | further results
Cc1cnc(C(=O)NN2C(=O)CS[C@H]2c2ccc(N(C)C)cc2)cn1 | 46.74% | 2.31 µg/mL (≈ 6.46 µM) | 28.4 µg/mL (≈ 79.5 µM) | 35.59% | 27.85% | 2.71% | -19.7482% | 60.23% | 22.9% | 9.803% | 34.87% | 65.91% | 3.26% | 21.18% | 91.72% | 29.04% | 23.39% | 28.08% | 5.9% | 12.03% | IC50 (A549): > 100 µg/mL; MCC at 72 h [3]: > 100 µg/mL; IC50 [10]: > 100 µg/mL; MCC at 120 h [10]: > 100 µg/mL; IC50 [13]: > 100 µg/mL; MCC at 120 h [13]: > 100 µg/mL; MCC at 96 h [14]: > 100 µg/mL; IC50 (MCF7): > 100 µg/mL
Nc1nccnc1C(=O)NN1C(=O)CSC1c1ccccc1 (configuration not stated) | 8.78% | 0.909 µg/mL (≈ 2.88 µM) | 28 µg/mL (≈ 88.9 µM) | -94.8% | 32.35% | -6.1% | 43.05% | 70.02% | -1.45% | 52.56% | -20.13% | 71.09% | 19.82% | 30.72% | 91.57% | 3.29% | -60.9565% | -71.2% | -4.3% | 25.98% | IC50 (A549): 77 µg/mL (≈ 244 µM); MCC at 72 h [3]: > 100 µg/mL; IC50 [10]: > 100 µg/mL; MCC at 120 h [10]: > 100 µg/mL; IC50 [13]: 89.6 µg/mL (≈ 284 µM); MCC at 120 h [13]: > 100 µg/mL; MCC at 96 h [14]: > 100 µg/mL; IC50 (MCF7): 81.3 µg/mL (≈ 258 µM)
O=C(NN1C(=O)CSC1c1ccc(O)cc1)c1cnccn1 (configuration not stated) | 39.38% |  |  | 41.07% | 16.31% | -7.31% | 28.83% | 40.52% | 30.2% | 31.9215% | 24.23% | 45.24% | 1.8% | 27.67% | 53.37% | 5.678% | 45.5719% | 49.76% | -5.94% | 9.87% | 
CCOc1cc([C@@H]2SCC(=O)N2NC(=O)c2cnc(C)cn2)ccc1O | 29.15% | 0.337 µg/mL (≈ 0.9 µM) | 26.6 µg/mL (≈ 70.9 µM) | -27.76% | -12.53% | 15.08% | 1.412% | 78.71% | 32.72% | 28.89% | -16.05% | 86.08% | 16.07% | 11.17% | 90.6% | 12.75% | 7.269% | 16.57% | 21.36% | 12.73% | IC50 (A549): > 100 µg/mL; MCC at 72 h [3]: > 100 µg/mL; IC50 [10]: > 100 µg/mL; MCC at 120 h [10]: > 100 µg/mL; IC50 [13]: > 100 µg/mL; MCC at 120 h [13]: > 100 µg/mL; MCC at 96 h [14]: > 100 µg/mL; IC50 (MCF7): > 100 µg/mL

Source: ChEMBL document CHEMBL3792312, “Synthesis and docking studies of pyrazine-thiazolidinone hybrid scaffold targeting dormant tuberculosis” (Bioorg Med Chem Lett, 2016)
